For data set [1], the system named is RS4;11-G101V cell line. Description: In vitro anti-proliferation assay (ATPlite) in RS4;11 with G101V mutation. The format is cell-based. The note with it: about 72 hours incubation. As for the experimental part:
(§1) Cell antiproliferation was assayed by PerkinElmer ATPlite™ Luminescence Assay System. Briefly, the various test cancer cell lines were plated at a density of about 1×10^4 cells per well in Costar 96-well plates, and were incubated with different concentrations of compounds for about 72 hours in medium supplemented with 5% FBS or 10% normal human serum(NHS). One lyophilized substrate solution vial was then reconstituted by adding 5 mL of substrate buffer solution, and was agitated gently until the solution was homogeneous. About 50 μL of mammalian cell lysis solution was added to 100 μL of cell suspension per well of a microplate, and the plate was shaken for about five minutes in an orbital shaker at ˜700 rpm. This procedure was used to lyse the cells and to stabilize the ATP. Next, 50 μL substrate solution was added to the wells and microplate was shaken for five minutes in an orbital shaker at ˜700 rpm. Finally, the luminescence was measured by a PerkinElmer TopCount® Microplate Scintillation Counter. Such assays, carried out with a range of doses of test compounds, allowed the determination of the cellular anti-antiproliferative IC50 of the compounds of the present invention. The following table lists the IC50 values of certain compounds of the invention.
The following table lists the IC50 values of the in vitro anti-proliferation assay in RS4;11-G101V cell line.
(In general: In ATP-based viability assays light output follows the ATP content of the culture.)

Data set [2] concerns CEM(R248Q). Description: In vitro anti-proliferation assay (ATPlite) in p53 mutant cell line CEM(R248Q). The format is cell-based. The note with it: Mutation R175H, about 72 hours incubation. As for the experimental part: as §1
(§2) The following table lists the IC50 values of another in vitro anti-proliferation assay in different p53 mutant cell lines.

In data set [3] the test system is KASUMI-1. Description: In vitro anti-proliferation assay (ATPlite) in p53 mutant cell line KASUMI-1. The note with it: Cell line KASUMI-1, Mutation R248Q, about 72 hours incubation. The format is cell-based. How it is done: as §1, §2
The test system of data set [4] is SUP-T1. The data set can be described thus: In vitro anti-proliferation assay (ATPlite) in p53 mutant cell line SUP-T1. The format is cell-based. The note with it: Cell line SUP-T1, Mutation R273H, about 72 hours incubation. How it is done: as §1, §2
The test system of data set [5] is DB. The data set can be described thus: In vitro anti-proliferation assay (ATPlite) in p53 mutant cell line DB. The format is cell-based. Conditions: Mutation R248Q, about 72 hours incubation. As for the experimental part:
as §1, §2

Data set [6] can be described thus: Mice PK study. The format is in vivo. Conditions: CD-1 mouse. As for the experimental part:
The pharmacokinetics of compounds were evaluated in CD-1 mouse via Intravenous and Oral Administration. The IV dose was administered as a slow bolus in the Jugular vein, and oral doses were administered by gavage. The formulation for IV dosing was 5% DMSO in 20% HPBCD in water, and the PO formulation was 2.5% DMSO, 10% EtOH, 20% Cremphor EL, 67.5% D5W. The PK time point for the IV arm was 5, 15, 30 min, 1, 2, 4, 6, 8, 12, 24 hours post dose, and for PO arm was 15, 30 min, 1, 2, 4, 6, 8, 12, 24 hours post dose. Approximately 0.03 mL blood was collected at each time point. Blood of each sample was transferred into plastic micro centrifuge tubes containing EDTA-K2 and collect plasma within 15 min by centrifugation at 4000 g for 5 minutes in a 4° C. centrifuge. Plasma samples were stored in polypropylene tubes. The samples were stored in a freezer at −75±15° C. prior to analysis. Concentrations of compounds in the plasma samples were analyzed using a LC-MS/MS method. WinNonlin (Phoenix™, version 6.1) or other similar software was used for pharmacokinetic calculations. The following pharmacokinetic parameters were calculated, whenever possible from the plasma concentration versus time data: IV administration: Co, CL, Vd, T1/2, AUCinf, AUClast, MRT, Number of Points for Regression; PO administration: Cmax, Tmax, T1/2, AUCinf, AUClast, F %, Number of Points for Regression. The pharmacokinetic data was described using descriptive statistics such as mean, standard deviation.

As a reminder, the IC50 is the concentration needed to halve the response being measured. A low value points to greater potency.

In data set [1], `COCC1(CO)C(=O)C2CCN1CC2` (centres unmarked) [APR-246, reference compound] came in with an IC50 of 1760 nM.

With `COC[C@@]1(CO)C(=O)C2CCN1CC2` [ARP-246-S, (S)-2-(hydroxymethyl)-2-(methoxymethyl)quinuclidin-3-one, reference compound], the IC50 in data set [2] worked out at 495 nM; in data set [3] (Homo sapiens) it was 1000 nM; in data set [4] (Homo sapiens) it was 4800 nM; in data set [5] (Homo sapiens), 3000 nM.

As to `COC[C@]1(CO)C(=O)[C@H]2CC[N@]1[C@H](C)C2` [Example 17, (1R,2R,4S,6R)-2-(hydroxymethyl)-2-(methoxymethyl)-6-methylquinuclidin-3-one], the IC50 turned out to be 730 nM in data set [1]; 560 nM in data set [2]; 1000 nM in data set [3]; 2100 nM in data set [4]; 3700 nM in data set [5]. The same molecule had a Bioavailabilty in data set [6] (Oral, 100 mpk) of 79%. Also, the AUClas in data set [6] (Oral, 100 mpk, plasma) was 26,093 h*ng/ml. For the same molecule, the “bioavailability (in words)” value in data set [6] (oral) was “excellent bioavailable”.

In the case of `COC[C@@]1(CO)C(=O)[C@@H]2CC[N@@]1[C@@H](C)C2` [Example 18, (1S,2S,4R,6S)-2-(hydroxymethyl)-2-(methoxymethyl)-6-methylquinuclidin-3-one], the IC50 in data set [1] came to 1800 nM; in data set [2] it was 690 nM; in data set [3], 2000 nM; in data set [4], 2600 nM; in data set [5], 2900 nM.

Turning to `COC[C@]1(CO)C(=O)[C@@H]2CC[N@@]1[C@@H](C)C2` [Example 27, (1S,2R,4R,6S)-2-(hydroxymethyl)-2-(methoxymethyl)-6-methylquinuclidin-3-one], the IC50 in data set [2] was determined as 1600 nM; in data set [3] it was 2600 nM; in data set [4], 3300 nM; in data set [5], 3300 nM.

`COC[C@@]1(CO)C(=O)[C@H]2CC[N@]1[C@H](C)C2` [Example 28, (1R,2S,4S,6R)-2-(hydroxymethyl)-2-(methoxymethyl)-6-methylquinuclidin-3-one]: the IC50 in data set [2] stood at 4500 nM; in data set [3] it was 7500 nM; in data set [4] it was 12600 nM; in data set [5], 18400 nM.

The values are drawn from patent US20240217964A1, “QUINUCLIDINONE ANALOGUES AS ANTICANCER AGENTS” (Newave Pharmaceutical Inc., priority 2021, published 2024).
